One test has as its target T1, recombinant human NK3 receptor (Homo sapiens, UniProt P29371).
T1 construct: expressed in transfected cells; host or cells: HEK293 cells, transient expression; membranes
T1 sequence (P29371 1-465): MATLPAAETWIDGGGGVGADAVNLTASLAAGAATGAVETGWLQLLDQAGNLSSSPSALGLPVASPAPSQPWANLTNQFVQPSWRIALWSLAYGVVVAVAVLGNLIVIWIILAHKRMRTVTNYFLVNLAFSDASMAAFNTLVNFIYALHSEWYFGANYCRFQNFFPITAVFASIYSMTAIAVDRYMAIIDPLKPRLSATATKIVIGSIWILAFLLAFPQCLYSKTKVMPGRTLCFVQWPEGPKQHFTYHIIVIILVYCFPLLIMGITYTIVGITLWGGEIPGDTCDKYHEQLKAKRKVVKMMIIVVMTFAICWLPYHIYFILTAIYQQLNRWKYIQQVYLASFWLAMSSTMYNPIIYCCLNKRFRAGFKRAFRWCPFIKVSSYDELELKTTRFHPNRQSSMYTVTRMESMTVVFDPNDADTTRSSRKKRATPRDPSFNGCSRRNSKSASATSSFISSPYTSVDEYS
Put plainly: [3H]SR142801 competition binding assay.
Conditions: not given
A word on the Ki: it is a dissociation constant, usually derived from enzyme kinetics or from competition with a known ligand. Turning to `CN(C(=O)Oc1ccc(F)cc1)[C@@H]1CN(C(=O)C2CCN(C(=O)C3CC(F)C3)CC2)C[C@H]1c1ccc(F)cc1` (stereo partly drawn) [Example 287, [(3S,4R)-1-[1-(3-Fluoro-cyclobutanecarbonyl)-piperidine-4-carbonyl]-4-(4-fluoro-phenyl)-pyrrolidin-3-yl]-methyl-carbamic acid 4-fluoro-phenyl ester], the Ki worked out at 7.2 nM.

For the compound `CN(C(=O)Oc1ccc(F)cc1)[C@H]1CN(C(=O)C2CCN(C(=O)C3(C)CC3)CC2)C[C@H]1c1ccc(Cl)c(Cl)c1` (racemic) [Example 40, rac-{(3R,4R)-4-(3,4-Dichloro-phenyl)-1-[1-(1-methyl-cyclopropanecarbonyl)-piperidine-4-carbonyl]-pyrrolidin-3-yl}-methyl-carbamic acid 4-fluoro-phenyl ester], the Ki came out at 4.2 nM.

For `COC1CC(C(=O)N2CCC(C(=O)N3C[C@@H](N(C)C(=O)Oc4ccc(F)cc4)[C@H](c4ccc(Cl)cc4)C3)CC2)C1` (stereo partly drawn) [Example 251, {(3S,4R)-4-(4-Chloro-phenyl)-1-[1-(3-methoxy-cyclobutanecarbonyl)-piperidine-4-carbonyl]-pyrrolidin-3-yl}-methyl-carbamic acid 4-fluoro-phenyl ester], the Ki is 2.2 nM.

For the compound `CN(C(=O)Oc1ccc(F)cc1)[C@@H]1CN(C(=O)C2CCN(C(=O)C3CCC(=O)NC3)CC2)C[C@H]1c1ccc(Cl)cc1` (stereo partly drawn) [Example 263, {(3S,4R)-4-(4-Chloro-phenyl)-1-[1-(6-oxo-piperidine-3-carbonyl)-piperidine-4-carbonyl]-pyrrolidin-3-yl}-methyl-carbamic acid 4-fluoro-phenyl ester], the Ki is 15.1 nM.

For the compound `Cc1ccc(N2CCC(C(=O)N3C[C@@H](N(C)C(=O)O[C@H]4CC[C@H](C(F)(F)F)CC4)[C@H](c4ccc(Cl)c(Cl)c4)C3)CC2)nn1` [Example 160, {(3S,4R)-4-(3,4-Dichloro-phenyl)-1-[1-(6-methyl-pyridazin-3-yl)-piperidine-4-carbonyl]-pyrrolidin-3-yl}-methyl-carbamic acid 4-trifluoromethyl-cyclohexyl ester], the Ki is 0.5 nM.

`CN(C(=O)Oc1ccc(F)cc1)[C@@H]1CN(C(=O)C2CCN(c3ccc(C(F)(F)F)cn3)CC2)C[C@H]1c1ccc(Cl)c(Cl)c1` [Example 306, [(3S,4R)-4-(3,4-Dichloro-phenyl)-1-(5′-trifluoromethyl-3,4,5,6-tetrahydro-2H-[1,2′]bipyridinyl-4-carbonyl)-pyrrolidin-3-yl]-methyl-carbamic acid 4-fluoro-phenyl ester]: the Ki is 0.7 nM.

For `CN(C(=O)OCC1CCC(F)(F)CC1)[C@H]1CN(C(=O)C2CCN(C(=O)C3(C)CC3)CC2)C[C@@H]1c1ccc(Cl)c(Cl)c1` (racemic) [Example 99, rac {(3R,4S)-4-(3,4-Dichloro-phenyl)-1-[1-(1-methyl-cyclopropanecarbonyl)-piperidine-4-carbonyl]-pyrrolidin-3-yl}-methyl-carbamic acid 4,4-difluoro-cyclohexylmethyl ester], the inhibition constant (Ki) turned out to be 1.6 nM.

On to `CN(C(=O)Oc1ccc(F)cc1)[C@@H]1CN(C(=O)C2CCN(C(=O)C3(C)COC3)CC2)C[C@H]1c1ccc(F)cc1` [Example 286, {(3S,4R)-4-(4-Fluoro-phenyl)-1-[1-(3-methyl-oxetane-3-carbonyl)-piperidine-4-carbonyl]-pyrrolidin-3-yl}-methyl-carbamic acid 4-fluoro-phenyl ester], for which the Ki is 25.4 nM.

As to `COc1ccc(OC(=O)N(C)[C@@H]2CN(C(=O)C3CCN(CC4CC4)CC3)C[C@H]2c2ccc(Cl)c(Cl)c2)cc1` [Example 21, [(3S,4R)-1-(1-Cyclopropylmethyl-piperidine-4-carbonyl)-4-(3,4-dichloro-phenyl)-pyrrolidin-3-yl]-methyl-carbamic acid 4-methoxy-phenyl ester], the Ki was 10.4 nM.

The same test, now with this note: hNK-3 receptor affinity; membranes from HEK293 cells transiently expressing recombinant human NK3 receptor; [3H]SR142801; Cheng-Prussoff; read-out: Data Ki.
Regarding `CN(C(=O)OC1CCCC1)[C@@H]1CN(C(=O)C2CCN(c3ccc(C#N)cn3)CC2)C[C@H]1c1ccc(Cl)cc1` [Example 204, [(3S,4R)-4-(4-Chloro-phenyl)-1-(5′-cyano-3,4,5,6-tetrahydro-2H-[1,2′]bipyridinyl-4-carbonyl)-pyrrolidin-3-yl]-methyl-carbamic acid cyclopentyl ester], the inhibitory constant (Ki) was 41.2 nM.

Take `CN(C(=O)OCCC1CC1)[C@@H]1CN(C(=O)C2CCN(c3ccc(C#N)cn3)CC2)C[C@H]1c1ccc(Cl)cc1` [Example 219, [(3S,4R)-4-(4-Chloro-phenyl)-1-(5′-cyano-3,4,5,6-tetrahydro-2H-[1,2′]bipyridinyl-4-carbonyl)-pyrrolidin-3-yl]-methyl-carbamic acid 2-cyclopropyl-ethyl ester]: the inhibitory constant (Ki) is 3.6 nM.

For the compound `CN(C(=O)O[C@H]1CC[C@H](C(F)(F)F)CC1)[C@@H]1CN(C(=O)C2CCN(c3ccc(C#N)cn3)CC2)C[C@H]1c1ccc(Cl)c(Cl)c1` [Example 159, [(3S,4R)-1-(5′-Cyano-3,4,5,6-tetrahydro-2H-[1,2′]bipyridinyl-4-carbonyl)-4-(3,4-dichloro-phenyl)-pyrrolidin-3-yl]-methyl-carbamic acid 4-trifluoromethyl-cyclohexyl ester], the Ki is 0.4 nM.

The target of the next test is T2, NK3 tachykinin receptor (Homo sapiens, UniProt P29371).
T2 sequence (P29371 1-465): T1 sequence (P29371 1-465)
Assay: not given
As to conditions: phase II trial; negative symptoms (depression, anhedonia, social isolation, memory and attention deficits); cited from earlier work.
In the case of `CC(=O)N(C)C1(c2ccccc2)CCN(CCC[C@]2(c3ccc(Cl)c(Cl)c3)CCCN(C(=O)c3ccccc3)C2)CC1` [SR 142,801, Osanetant], the “activity in the treatment of negative symptoms of schizophrenia” value is “inactive”.

Staying with this test, now noted: phase II trial; positive symptoms (altered behaviour, delusion, hallucinations, extreme emotions, excited motor activity, incoherent speech); cited from earlier work.
As to `CC(=O)N(C)C1(c2ccccc2)CCN(CCC[C@]2(c3ccc(Cl)c(Cl)c3)CCCN(C(=O)c3ccccc3)C2)CC1` [SR 142,801, Osanetant], the “activity on positive symptoms of schizophrenia” value was “active”.

Source of the values: US9226916B2, “Pyrrolidine derivatives” (HOFFMANN-LA ROCHE INC., priority 2009, dated 2016).
